Laboratory results as given in PubChem BioAssay AID1343 (Sanford-Burnham Center for Chemical Genomics, 2008).
The source made the active and inactive calls.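 How the source made its calls: active means survival of 63% or more, 10 points above the level seen with tunicamycin given alone; inactive means the rest.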

These compounds were tested on CSM14.1 tunicamycin-induced death, ATP luminescence, 48 h (assay: protection against tunicamycin ER stress killing – cell-based, undifferentiated CSM14.1, ATP content, mechanism study for ER stress death inhibitor project, late-stage follow-up (AID 1343)). Conditions: at 25 µM; stronger effect = higher value.

Row | Structure (SMILES) | survival
1 | O=C1CC(c2ccccc2)CC2=C1C(c1c(F)cccc1Cl)Nc1ccccc1N2 (stereo unspecified) | 52% (inactive)
2 | COc1ccc(C2CC(=O)C3=C(C2)Nc2ccccc2NC3c2cccc(Br)c2)cc1OC (stereo unspecified) | 64%
3 | CC1(C)CC(=O)C2=C(C1)Nc1ccccc1NC2c1ccc(-c2ccccc2)cc1 (stereo unspecified) | 77%
4 | COc1ccc(C2CC(=O)C3=C(C2)Nc2ccccc2NC3c2cccc(C(F)(F)F)c2)cc1OC (stereo unspecified) | 65%
5 | CSc1ccc(C2Nc3ccccc3NC3=C2C(=O)CC(c2ccccc2)C3)cc1 (stereo unspecified) | 59% (inactive)
6 | CCOc1cc(C2Nc3ccccc3NC3=C2C(=O)CC(c2ccc(OC)cc2)C3)cc(Cl)c1O (stereo unspecified) | 46% (inactive)
7 | COc1ccc(C2CC(=O)C3=C(C2)Nc2ccccc2NC3c2ccccc2C(F)(F)F)cc1OC (stereo unspecified) | 60% (inactive)
8 | CCCOc1ccc(C2Nc3ccccc3NC3=C2C(=O)CC(c2ccc(OC)c(OC)c2)C3)cc1 (stereo unspecified) | 74%
9 | COc1ccc(C2CC(=O)C3=C(C2)Nc2ccccc2NC3c2cc(C)ccc2C)cc1 (stereo unspecified) | 57% (inactive)
10 | COc1ccc(C2CC(=O)C3=C(C2)Nc2ccccc2NC3c2cccc(Oc3ccccc3)c2)cc1OC (stereo unspecified) | 63%
11 | CCOc1cccc(C2Nc3ccccc3NC3=C2C(=O)CC(c2ccc(OC)cc2)C3)c1 (stereo unspecified) | 55% (inactive)
